Experimental data as given in the supplement of paper PMC10883282.
± gives the standard deviation of the averaged measurements.

System: SW872
Assay: relative viability vs DMSO control (72 h) (fraction); higher = more viable cells
In short: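 Sarcoma cell lines were seeded in 384-well plates at densities set to reach 80–90% confluence. After 24 h, 2.5 µl of serially diluted compound was added (source plates 10 mM to 0.0002 mM), and plates were held 72 h at 37 °C, 5% CO2, with 0.1% DMSO vehicle and a 5 µM positive control. Relative viability came from ATPLite readings as percent growth, averaged over up to triplicate wells. Data were rescaled so full viability equals 1 and none equals 0.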

| Compound | relative viability (0.00017 µM) | relative viability (0.00051 µM) | relative viability (0.00152 µM) | relative viability (0.00457 µM) | relative viability (0.01372 µM) | relative viability (0.04115 µM) | relative viability (0.1235 µM) | relative viability (0.3704 µM) | relative viability (1.111 µM) | relative viability (3.333 µM) | relative viability (10 µM) |
| --- | --- | --- | --- | --- | --- | --- | --- | --- | --- | --- | --- |
| CNC(=O)c1ccc(-c2cnc3ncc(Cc4ccc5ncccc5c4)n3n2)cc1F [Capmatinib] | 1.04 ± 0.041 | 1.03 ± 0.026 | 1.04 ± 0.048 | 1.03 ± 0.025 | 1.05 ± 0.049 | 1.05 ± 0.022 | 1.03 ± 0.043 | 1.06 ± 0.029 | 0.987 ± 0.024 | 1.02 ± 0.012 | 1 ± 0.019 |
| CCN1CCN(Cc2ccc(Nc3ncc(F)c(-c4cc(F)c5nc(C)n(C(C)C)c5c4)n3)nc2)CC1 [Abemaciclib] | 1.01 ± 0.08 | 1.03 ± 0.038 | 1.01 ± 0.044 | 1.02 ± 0.046 | 1.01 ± 0.052 | 0.95 ± 0.095 | 0.874 ± 0.037 | 0.742 ± 0.025 | 0.678 ± 0.032 | 0.668 ± 0.018 | 0.709 ± 0.04 |
| C=CC(=O)N1CCC[C@@H](n2nc(-c3ccc(Oc4ccccc4)cc3)c3c(N)ncnc32)C1 [Ibrutinib] | 1.06 ± 0.016 | 1.06 ± 0.017 | 1.06 ± 0.064 | 1.01 ± 0.022 | 1.01 ± 0.042 | 0.976 ± 0.037 | 0.98 ± 0.081 | 0.923 ± 0.024 | 0.9099 ± 0.0036 | 0.84 ± 0.049 | 0.583 ± 0.027 |
| Cn1cnc2c(F)c(Nc3ccc(Br)cc3F)c(C(=O)NOCCO)cc21 [Binimetinib] | 1.11 ± 0.046 | 1.06 ± 0.027 | 1.02 ± 0.059 | 1.05 ± 0.041 | 0.889 ± 0.038 | 0.724 ± 0.086 | 0.635 ± 0.041 | 0.584 ± 0.011 | 0.589 ± 0.02 | 0.583 ± 0.037 | 0.559 ± 0.026 |
| CC1(C)CNc2cc(NC(=O)c3cccnc3NCc3ccncc3)ccc21 [Motesanib] | 1 ± 0.03 | 0.988 ± 0.014 | 0.972 ± 0.025 | 0.971 ± 0.029 | 0.95 ± 0.047 | 0.98 ± 0.012 | 0.971 ± 0.035 | 0.999 ± 0.015 | 0.978 ± 0.021 | 0.958 ± 0.035 | 0.811 ± 0.028 |
| C[C@@H](c1ccc2nccn2c1)n1nnc2ncc(-c3cnn(C)c3)nc21 [Volitinib] | 1.06 ± 0.029 | 1.06 ± 0.034 | 1.08 ± 0.027 | 1.08 ± 0.051 | 1.06 ± 0.045 | 1.089 ± 0.0097 | 1.07 ± 0.041 | 1.06 ± 0.043 | 1.1 ± 0.026 | 1.05 ± 0.025 | 1.05 ± 0.044 |
| Cc1ccc(NC(=O)c2ccc(CN3CCN(C)CC3)cc2)cc1Nc1nc(-c2cccnc2)cs1 [Masitinib] | 1.03 ± 0.044 | 1.06 ± 0.028 | 1.04 ± 0.029 | 1.03 ± 0.041 | 1.04 ± 0.038 | 1.06 ± 0.03 | 1.006 ± 0.006 | 0.979 ± 0.021 | 0.798 ± 0.015 | 0.519 ± 0.0078 | 0.127 ± 0.012 |
| C=CC(=O)Nc1cccc(Oc2nc(Nc3ccc(N4CCN(C)CC4)cc3)nc3ccsc23)c1 [Olmutinib] | 1.01 ± 0.04 | 1.03 ± 0.011 | 1.02 ± 0.029 | 1.03 ± 0.034 | 1.034 ± 0.0086 | 1.01 ± 0.044 | 1.01 ± 0.011 | 1.02 ± 0.018 | 1.011 ± 0.0092 | 0.873 ± 0.05 | 0.625 ± 0.015 |
| CC(C)(C)c1cc(NC(=O)Nc2ccc(-c3cn4c(n3)sc3cc(OCCN5CCOCC5)ccc34)cc2)no1 [Quizartinib] | 1.05 ± 0.023 | 1.045 ± 0.0071 | 1.05 ± 0.0053 | 1.041 ± 0.0092 | 1.051 ± 0.0052 | 1.04 ± 0.012 | 1.04 ± 0.019 | 1.03 ± 0.037 | 1.029 ± 0.01 | 1.032 ± 0.0056 | 1.02 ± 0.018 |
| CC(C)NC(=O)C1CCC(n2c(NC(=O)c3ccc(F)cc3)nc3ccc(CN4CCC(C(C)(C)O)CC4)cc32)CC1 (stereo not given) [Belizatinib] | 1.08 ± 0.04 | 1.07 ± 0.027 | 1.04 ± 0.052 | 1.05 ± 0.033 | 1.07 ± 0.01 | 1.05 ± 0.024 | 1.01 ± 0.019 | 0.817 ± 0.034 | 0.5729 ± 0.0013 | 0.412 ± 0.021 | 0.274 ± 0.0093 |
| Cc1ccc(F)c(NC(=O)Nc2ccc(-c3cccc4[nH]nc(N)c34)cc2)c1 [Linifanib] | 1.07 ± 0.042 | 1.06 ± 0.048 | 1.07 ± 0.028 | 1.02 ± 0.027 | 1.012 ± 0.0025 | 1.01 ± 0.015 | 1.01 ± 0.053 | 0.991 ± 0.022 | 1.02 ± 0.033 | 1.05 ± 0.049 | 1.03 ± 0.076 |
| Cc1nc(NC(=O)N2CCC[C@H]2C(N)=O)sc1-c1ccnc(C(C)(C)C(F)(F)F)c1 [Alpelisib] | 1.04 ± 0.055 | 1.04 ± 0.046 | 1.03 ± 0.052 | 1 ± 0.062 | 0.965 ± 0.068 | 0.938 ± 0.077 | 0.835 ± 0.039 | 0.778 ± 0.062 | 0.698 ± 0.085 | 0.565 ± 0.035 | 0.398 ± 0.024 |
| C[C@]1(O)C[C@@H](c2nc(-c3ccc4ccc(-c5ccccc5)nc4c3)c3c(N)nccn32)C1 [Linsitinib] | 1.04 ± 0.037 | 1.05 ± 0.014 | 1.03 ± 0.041 | 1 ± 0.043 | 0.995 ± 0.048 | 0.973 ± 0.027 | 0.9745 ± 0.0092 | 0.9267 ± 0.0035 | 0.914 ± 0.027 | 0.821 ± 0.028 | 0.615 ± 0.018 |
| C=CC(=O)N1CCC([C@@H]2CCNc3c(C(N)=O)c(-c4ccc(Oc5ccccc5)cc4)nn32)CC1 [Zanubrutinib] | 1.01 ± 0.032 | 1.03 ± 0.028 | 0.996 ± 0.038 | 1.01 ± 0.029 | 0.9666 ± 0.0096 | 0.954 ± 0.046 | 0.883 ± 0.066 | 0.923 ± 0.026 | 0.912 ± 0.034 | 0.929 ± 0.029 | 0.844 ± 0.022 |
| CCc1cc2c(cc1N1CCC(N3CCOCC3)CC1)C(C)(C)c1[nH]c3cc(C#N)ccc3c1C2=O [Alectinib] | 1.03 ± 0.043 | 1.02 ± 0.063 | 1.05 ± 0.069 | 1.04 ± 0.036 | 1.07 ± 0.053 | 1.06 ± 0.046 | 1.09 ± 0.062 | 1.07 ± 0.069 | 1.09 ± 0.058 | 1.07 ± 0.076 | 1.08 ± 0.065 |
